Source: ChEMBL document CHEMBL1201862, “PubChem BioAssay data set” (2004)
Active and inactive are the calls of the source.

Tests used:
[1] = nonselective StAR promoter luciferase inhibitors – cell-based, luminescence, luciferase reporter, counter-screen for LRH-1 inverse agonist project, dose response (AID 651969); type: functional
Steroidogenic factor 1 = Steroidogenic factor 1 (Homo sapiens, UniProt Q13285); assay: Counterscreen for inverse agonists of the liver receptor homolog-1 (LRH-1; NR5A2): Luminescence-based cell-based high throughput dose response assay to identify inverse agonists of the Steroidogenic Factor 1 Nuclear Receptor (SF1; NR5A1).; type: functional
[2] = target: Nuclear receptor subfamily 5 group A member 2 (Homo sapiens, UniProt O00482); type: functional, cell-based;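 also: HEK293T cells transfected with LRH-1 and a StAR promoter luciferase reporter; potency for inhibitors that lower LRH-1 driven reporter light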
Beta-lactamase [3] = target: T1, Beta-lactamase (Pseudomonas aeruginosa, UniProt Q79MP6); assay: inhibition of IMP-1 beta-lactamase activity – biochemical, epi-absorbance, selectivity assay for VIM-2 inhibitor project, dose response (AID 1920)
Beta-lactamase [4] = target: T1, Beta-lactamase; assay: […] counterscreen for selective VIM-2 inhibitors: dose response biochemical high throughput screening assay to identify inhibitors of IMP-1 metallo-beta-lactamase.
Beta-lactamase [5] = target: Beta-lactamase (Salmonella choleraesuis (strain SC-B67), UniProt Q5J463); assay: Epi-absorbance-based counterscreen for selective VIM-2 inhibitors: dose response biochemical high throughput screening assay to identify inhibitors of TEM-1 serine-beta-lactamase.
[6] = target: T2, Endoribonuclease toxin MazF (Escherichia coli K-12, UniProt P0AE70); assay: substrate-only fluorescence increase artefacts – biochemical, single-stranded RNase substrate, counter-screen for MazEF activator project, dose response (AID 588502); type: functional
T2 sequence (P0AE70 whole entry): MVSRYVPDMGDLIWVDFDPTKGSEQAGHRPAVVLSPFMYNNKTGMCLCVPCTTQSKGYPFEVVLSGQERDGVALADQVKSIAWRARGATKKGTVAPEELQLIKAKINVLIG

[7] = target: T2, Endoribonuclease toxin MazF; assay: activation of MazEF endoribonuclease cleavage – biochemical, fluorescence, single-stranded RNA substrate, uHTS hits, dose response (AID 588481); type: functional
HEK293 [8] = assay: EBV LMP1 TES2 canonical NF-kB signalling blockers – cell-based, HEK293, luciferase, cherry-pick, dose response (AID 588343); type: functional; details: Homo sapiens
[9] = blockade of melanocortin 4 receptor signaling – cell-based, plate reader, cherry pick, counter-screen for LGR2 antagonist project, dose response (AID 743444); type: functional;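 also: transfected HEK 293 cells stimulated with alpha-MSH peptide; potency of inhibitors of the alpha-MSH evoked signal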
[10] = A549 cell cytotoxicity, dose response, cytotoxicity control, plate reader, cherry-pick, antagonist series (AID 743412); type: functional, cell-based
[11] = blockers of bursicon-stimulated LGR2 cAMP reporter – cell-based, HEK293, CRE-luciferase reporter, cherry pick, set 2, dose response (AID 743343); type: functional;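 also: transfected cells were stimulated with diluted bursicon conditioned medium after compound addition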
[12] = toxicity toward HepG2 liver cells – cell-based, plate reader, cherry-pick, antagonist series, cytotoxicity control, dose response (AID 743416); type: functional
[13] = viability of uninfected HEp-2 cells – cell-based, HTS, cytotoxicity control for RSV inhibitor project, dose response (AID 2410); type: functional; details: human respiratory syncytial virus
[14] = intracellular Trypanosoma cruzi inhibitors in host cells – cell-based, plate reader, cherry-pick samples, set 3, dose response (AID 651818); type: functional;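 also: compounds incubated with infected cells for about four days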
HEK293 [15] = assay: cells; type: functional, cell-based; details: Homo sapiens
HEK293 [16] = assay: NOD2 signaling inhibitors in MDP-stimulated cells, cell-based, uHTS, luminescence (AID 2001); type: functional; details: Homo sapiens
HEK293 [17] = assay: cells; type: functional, cell-based; details: Homo sapiens; remark: listed apart in the source
HEK293 [18] = assay: inhibition of NOD1-driven NF-kB reporter – cell-based, luminescence, uHTS, primary screen (AID 1578); type: functional; details: Homo sapiens

T1 sequence (Q79MP6 whole entry): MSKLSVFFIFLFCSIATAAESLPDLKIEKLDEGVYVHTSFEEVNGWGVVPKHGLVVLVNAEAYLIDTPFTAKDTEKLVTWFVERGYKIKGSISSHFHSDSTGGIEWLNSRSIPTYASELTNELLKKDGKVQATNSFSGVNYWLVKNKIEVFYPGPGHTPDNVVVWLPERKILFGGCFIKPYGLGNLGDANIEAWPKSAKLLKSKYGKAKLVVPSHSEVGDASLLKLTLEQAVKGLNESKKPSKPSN
Chain of Beta-lactamase (Salmonella choleraesuis (strain SC-B67), UniProt Q5J463) (Q5J463 whole entry): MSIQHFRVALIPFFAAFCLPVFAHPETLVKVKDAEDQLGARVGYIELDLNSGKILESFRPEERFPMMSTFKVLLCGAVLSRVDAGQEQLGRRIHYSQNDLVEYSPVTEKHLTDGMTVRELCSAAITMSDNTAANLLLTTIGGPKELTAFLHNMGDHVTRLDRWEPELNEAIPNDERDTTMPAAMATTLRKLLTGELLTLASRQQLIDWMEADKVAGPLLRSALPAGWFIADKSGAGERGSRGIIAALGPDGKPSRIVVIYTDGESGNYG
Chain of Nuclear receptor subfamily 5 group A member 2 (O00482 whole entry): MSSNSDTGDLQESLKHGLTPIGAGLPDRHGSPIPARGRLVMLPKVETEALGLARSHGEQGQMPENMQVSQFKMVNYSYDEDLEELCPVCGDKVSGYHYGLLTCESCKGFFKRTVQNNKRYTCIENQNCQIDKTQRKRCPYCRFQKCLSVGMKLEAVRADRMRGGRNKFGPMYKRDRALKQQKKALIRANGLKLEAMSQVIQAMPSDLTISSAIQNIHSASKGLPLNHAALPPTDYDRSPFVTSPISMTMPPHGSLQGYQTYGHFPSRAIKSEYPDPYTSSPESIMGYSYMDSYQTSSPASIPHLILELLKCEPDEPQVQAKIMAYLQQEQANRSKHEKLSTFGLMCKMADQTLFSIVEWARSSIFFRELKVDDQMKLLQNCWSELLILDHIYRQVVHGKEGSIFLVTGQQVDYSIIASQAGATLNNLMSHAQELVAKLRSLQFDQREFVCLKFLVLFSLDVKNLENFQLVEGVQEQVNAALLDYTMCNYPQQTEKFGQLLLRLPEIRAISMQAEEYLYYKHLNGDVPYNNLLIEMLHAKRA
Chain of Steroidogenic factor 1 (Q13285 whole entry): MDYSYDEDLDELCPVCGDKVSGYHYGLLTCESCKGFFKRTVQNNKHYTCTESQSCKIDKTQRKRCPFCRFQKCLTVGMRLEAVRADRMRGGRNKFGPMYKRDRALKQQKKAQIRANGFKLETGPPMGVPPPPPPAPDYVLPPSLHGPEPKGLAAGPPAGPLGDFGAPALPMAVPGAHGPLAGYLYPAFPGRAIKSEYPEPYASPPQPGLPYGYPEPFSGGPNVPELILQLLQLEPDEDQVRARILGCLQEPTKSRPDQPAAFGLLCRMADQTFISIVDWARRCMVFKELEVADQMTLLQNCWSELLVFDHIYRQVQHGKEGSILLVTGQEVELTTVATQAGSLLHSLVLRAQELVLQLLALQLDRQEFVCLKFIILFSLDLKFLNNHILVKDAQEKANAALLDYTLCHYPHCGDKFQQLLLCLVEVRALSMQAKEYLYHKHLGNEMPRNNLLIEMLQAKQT

COc1ccc(NC(=O)CSc2nc(N)c(-c3ccccc3)c(O)n2)cc1
IC50 [1]: 35.9 µM (inactive) | IC50 (Steroidogenic factor 1): 2.36 µM (active) | IC50 [2]: 9.88 µM (active)

O=C(CCN1C(=O)/C(=C/c2ccccc2F)SC1=S)NCCCn1ccnc1
IC50 (Beta-lactamase [3]): > 59.6 µM (inactive) | IC50 (Beta-lactamase [4]): > 19.9 µM (inactive) | IC50 (Beta-lactamase [5]): > 59.6 µM (inactive)

Cc1cc(-c2ccccc2)c2c3c(c(-c4ccccc4)n2n1)c(=O)n(C)c(=O)n3C
EC50 [6]: > 99 µM (inactive) | EC50 [7]: > 99 µM (inactive)

Cc1cccc(-n2ncc3c(N4CCOCC4)ncnc32)c1
AC50 (HEK293 [8]): 1.36 µM (active) | AC50 [9]: 3.94 µM (active) | AC50 [10]: > 52 µM (inactive) | AC50 [11]: 3.92 µM (active) | AC50 [12]: > 52 µM (inactive) | CC50 [13]: 19.1 µM (active)

C[C@@H]1CCCCO[C@@H](CN(C)C(=O)Nc2ccc(C(F)(F)F)cc2)[C@@H](C)CN([C@H](C)CO)C(=O)c2cc(NS(=O)(=O)c3ccc(Cl)cc3)ccc2O1
AC50 [14]: 3.05 µM (active)

C[C@@H]1CN([C@H](C)CO)C(=O)c2cccc(NC(=O)CCCCCC(=O)Nc3ccccc3N)c2O[C@H]1CN(C)CC1CC1
AC50 [14]: 3.12 µM (active)

C[C@@H]1CN([C@@H](C)CO)C(=O)Cc2cc(NC(=O)Nc3ccc(C(F)(F)F)cc3)ccc2O[C@@H]1CN(C)Cc1ccc2c(c1)OCO2
AC50 [14]: 2.01 µM (active)

C[C@H](CO)N1C[C@H](C)[C@H](CN(C)Cc2ccc(C(F)(F)F)cc2)Oc2ccc(NC(=O)Nc3ccc(F)cc3)cc2CC1=O
AC50 [14]: 2.19 µM (active)

COC(=O)c1c(/N=C/N(C)C)sc2c1CCN(c1ncc(C(F)(F)F)cc1Cl)C2
EC50 [6]: > 99 µM (inactive) | EC50 [7]: > 99 µM (inactive)

CN1CCN(c2ncnc3ccc(Br)cc23)CC1
IC50 (HEK293 [15]): 4.83 µM (active) | IC50 (HEK293 [16]): 6.08 µM (active) | IC50 (HEK293 [17]): > 20 µM (inactive) | EC50 (HEK293 [18]): 17.8 µM (active)
